# Assay results reported in ChEMBL document CHEMBL3286241, “Dammarane-type triterpenoids from Gentianella azurea” (J Nat Prod, 2014).
# Tested on: RAW264.7
# Experiment: Antiinflammatory activity in mouse RAW264.7 cells assessed as inhibition of LPS-induced NO production after 24 hrs by Griess assay
# Format: functional, cell-based
# Conditions: RAW264.7, 24 h
row,IC50,SMILES
1,6.6 µM,CC1(C)O[C@](C(=O)O)([C@H]2CC[C@]3(C)[C@@H]2CC[C@@H]2[C@@]4(C)CC[C@H](O[C@@H]5O[C@H](CO)[C@@H](O)[C@H](O)[C@H]5O)[C@](C)(CO)[C@@H]4CC[C@]23C)C[C@H](O)[C@@H]1O [GENTIRIGEOSIDE A]
2,1.25 µM,COc1ccc2c(c1)c(CC(=O)O)c(C)n2C(=O)c1ccc(Cl)cc1 [INDOMETHACIN]
